The record followed here is paper PMC9795070, “Customized chitooligosaccharide production—controlling their length via engineering of rhizobial chitin synthases and the choice of expression system” (Frontiers in Bioengineering and Biotechnology, 2022).

In the test the target is T1, NodC_GRH2 (Rhizobium sp. GRH2, UniProt A0A0N7ARR3).
T1 construct: gene nodC; wild-type nodC in shuttle vector pEKEx3, expressed in E. coli BL21 (DE3) and C. glutamicum DSM20300; not purified, membrane-embedded
T1 sequence (A0A0N7ARR3 1-443): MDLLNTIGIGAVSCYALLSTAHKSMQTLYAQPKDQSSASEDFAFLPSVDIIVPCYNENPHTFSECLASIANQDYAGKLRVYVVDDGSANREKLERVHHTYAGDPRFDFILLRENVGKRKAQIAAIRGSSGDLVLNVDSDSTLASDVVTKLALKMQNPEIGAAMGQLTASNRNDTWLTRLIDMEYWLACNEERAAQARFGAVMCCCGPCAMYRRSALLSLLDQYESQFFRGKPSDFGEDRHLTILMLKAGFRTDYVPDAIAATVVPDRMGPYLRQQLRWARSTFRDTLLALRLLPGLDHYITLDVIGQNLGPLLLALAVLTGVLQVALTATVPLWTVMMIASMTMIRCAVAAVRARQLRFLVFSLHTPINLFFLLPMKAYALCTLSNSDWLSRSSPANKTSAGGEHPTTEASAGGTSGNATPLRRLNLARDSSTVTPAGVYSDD
As to the kind of experiment: whole-cell production, HILIC-ESI-MS of lysed culture. The class given is cell-based. The conditions noted are these: 0.1 mM IPTG, donor UDP-GlcNAc from the host.

Turning to `CC(=O)N[C@H]1[C@H](O[C@H]2[C@H](O)[C@@H](NC(C)=O)[C@H](O[C@H]3[C@H](O)[C@@H](NC(C)=O)C(O)O[C@@H]3CO)O[C@@H]2CO)O[C@H](CO)[C@@H](O[C@@H]2O[C@H](CO)[C@@H](O[C@@H]3O[C@H](CO)[C@@H](O[C@@H]4O[C@H](CO)[C@@H](O)[C@H](O)[C@H]4NC(C)=O)[C@H](O)[C@H]3NC(C)=O)[C@H](O)[C@H]2NC(C)=O)[C@@H]1O` (some centres unmarked) [A6, hexamer], the “whole-cell production, HILIC-ESI-MS of lysed culture” value (C. glutamicum DSM20300, 30 °C) is reported as “C. glutamicum expressing the same wildtype enzyme produces predominantly A6”.

Take `CC(=O)N[C@H]1[C@H](O[C@H]2[C@H](O)[C@@H](NC(C)=O)[C@H](O[C@H]3[C@H](O)[C@@H](NC(C)=O)C(O)O[C@@H]3CO)O[C@@H]2CO)O[C@H](CO)[C@@H](O[C@@H]2O[C@H](CO)[C@@H](O[C@@H]3O[C@H](CO)[C@@H](O)[C@H](O)[C@H]3NC(C)=O)[C@H](O)[C@H]2NC(C)=O)[C@@H]1O` (some centres unmarked) [A5, pentamer]: the “whole-cell production, HILIC-ESI-MS of lysed culture” value (E. coli BL21 (DE3), 30 °C) is “the main product for wildtype NodC_GRH2 throughout the whole cultivation is A5”.
